According to US20240285808A1, “MOLECULAR PROBES FOR IN VIVO DETECTION OF ALDEHYDES” (The General Hospital Corporation, priority 2021, published 2024):

Assays:
[1] = test system: ECM proteins from fibrotic rat liver; test: Relaxivity measurements in ECM; type: binding; settings: for relaxivity in ECM: PBS, pH 7.4, 2 h, 37° C., 1.41T; for relaxivity in ECM with 100-fold excess of hydrazine: aldehydes blocked with N2H4
Method: Liver fibrosis was induced in male Sprague Dawley rats by ligation of the common bile duct (CD®, Charles River Labs, Wilmington, MA). Ten days after common bile duct ligation, the fibrotic liver was harvested and sequential extractions were performed using the CNMCS (Cytosol/Nucleus/Membrane/Cytoskeleton) Compartmental Protein Extraction kit (Cytomol, Union City, CA) according to manufacturer's instructions. In brief, frozen tissues (150-200 mg) were homogenized and with solvents provided in the kit to sequentially to remove: cytosolic proteins, nuclear proteins, membrane proteins, and cytoskeletal proteins, leaving a final insoluble fraction enriched for ECM proteins.
Relaxivity Measurements in ECM
The enriched ECM proteins from 800 mg of fibrotic rat liver were suspended in 1 ml PBS. The ECM protein concentration was about 10% (5 mg in a 50 μL aliquot determined by weight after lyophilization). An aliquot of the solution (50 μL) was treated for 2 h at 37° C. with the corresponding molecular probe at a range of concentrations (0.01-0.1 mM) and then longitudinal (T1) relaxation measurements was recorded using a Bruker mq60 Minispec at 1.41 T and 37° C. For the blocking experiment with N2H4, a 100 fold-excess of N2H4 referred to the concentration of molecular probe was added to the solution before the incubation. Longitudinal (T1) relaxation times were measured via an inversion recovery experiment using 10 inversions of duration ranging between 0.05×T1 and 10×T1. Relaxivity (r1) was determined from the slope of a plot of 1/T1 vs metal concentration for 4 concentrations.

BSA-ALD [2] = target: T1, BSA-ALD (Bos taurus, UniProt P02769); test: On/off rate with oxidized BSA-ALD; type: binding, bovine; settings: for fold higher initial on rate / reactivity with BSA-Ald compared to Gd-CHyd: BSA-Ald 10 mg/mL in PBS
T1 construct: made in house; host or cells: no expression host: BSA oxidised chemically with sodium ascorbate, ferric chloride and H2O2, then desalted on PD-10
T1 sequence (P02769 25-607): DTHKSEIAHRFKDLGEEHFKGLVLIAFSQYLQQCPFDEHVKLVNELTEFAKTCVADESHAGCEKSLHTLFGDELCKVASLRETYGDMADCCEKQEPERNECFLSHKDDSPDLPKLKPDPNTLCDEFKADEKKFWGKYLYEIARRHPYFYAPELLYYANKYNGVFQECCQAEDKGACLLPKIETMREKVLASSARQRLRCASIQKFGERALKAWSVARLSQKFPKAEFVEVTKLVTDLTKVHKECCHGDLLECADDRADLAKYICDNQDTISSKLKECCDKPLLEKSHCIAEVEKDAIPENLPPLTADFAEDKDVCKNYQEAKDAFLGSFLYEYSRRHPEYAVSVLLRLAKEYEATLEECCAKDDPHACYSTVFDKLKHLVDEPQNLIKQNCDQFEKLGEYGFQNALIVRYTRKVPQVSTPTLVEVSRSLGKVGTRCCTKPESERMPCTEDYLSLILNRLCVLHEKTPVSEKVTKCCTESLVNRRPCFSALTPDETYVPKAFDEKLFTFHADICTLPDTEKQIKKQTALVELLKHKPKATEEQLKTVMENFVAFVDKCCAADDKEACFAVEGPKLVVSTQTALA
Method: On Off Rate with Oxidized BSA-ALD:
BSA-ALD (10 mg/mL) was incubated with 200 μM corresponding Gd or Mn complex at 37° C. in pH 7.4 PBS), with a total volume of 300 μL. The dynamic longitudinal (T1) relaxation time were measured using a Bruker mq60 Minispec at 1.41 T and 37° C. After 24 hours, protein-bound and protein-free solutions were separated by ultrafiltration. Then 200 μL PBS was added to the residue to dissolve the protein bound species. The change of longitudinal (T1) relaxation time was then measured in Bruker mq60 Minispec at 1.41 T and 37° C.

[3] = Elimination and retention of gadolinium in normal mice; type: in vivo, mouse; settings: for route of elimination (dynamic whole-body MRI): 100 μmol/kg i.v.; for Gadolinium content, Sum, % ID per Organ / Gadolinium content, Bone, % ID per Gram / Gadolinium content, Bone, % ID per Organ / Gadolinium content, Brain, % ID per Gram / Gadolinium content, Brain, % ID per Organ / Gadolinium content, Heart, % ID per Gram / Gadolinium content, Heart, % ID per Organ / Gadolinium content, Kidneys, % ID per Gram / Gadolinium content, Kidneys, % ID per Organ / Gadolinium content, Liver, % ID per Gram / Gadolinium content, Liver, % ID per Organ / Gadolinium content, Lung, % ID per Gram / Gadolinium content, Lung, % ID per Organ / Gadolinium content, Muscle, % ID per Gram / Gadolinium content, Muscle, % ID per Organ / Gadolinium content, Serum, % ID per Gram / Gadolinium content, Serum, % ID per Organ / Gadolinium content, Spleen, % ID per Gram / Gadolinium content, Spleen, % ID per Organ / Gadolinium content, Stomach, % ID per Gram / Gadolinium content, Stomach, % ID per Organ: 24 h after injection, 100 μmol/kg; for Gadolinium content, Bone, % ID per Gram / Gadolinium content, Bone, % ID per Organ / Gadolinium content, Brain, % ID per Gram / Gadolinium content, Brain, % ID per Organ / Gadolinium content, Heart, % ID per Gram / Gadolinium content, Heart, % ID per Organ / Gadolinium content, Kidneys, % ID per Gram / Gadolinium content, Kidneys, % ID per Organ / Gadolinium content, Liver, % ID per Gram / Gadolinium content, Liver, % ID per Organ / Gadolinium content, Lung, % ID per Gram / Gadolinium content, Lung, % ID per Organ / Gadolinium content, Muscle, % ID per Gram / Gadolinium content, Muscle, % ID per Organ / Gadolinium content, Serum, % ID per Gram / Gadolinium content, Serum, % ID per Organ / Gadolinium content, Spleen, % ID per Gram / Gadolinium content, Spleen, % ID per Organ / Gadolinium content, Stomach, % ID per Gram / Gadolinium content, Stomach, % ID per Organ: n = 4
Method: FIG. 55. […] The liver enhances slightly with first-blood pass but the signal rapidly returns to baseline after 20 min.
At 24 h post-injection (p.i.), >99% of the injected dose of gadolinium was eliminated from the body (Table B).

BSA-ALD [4] = target: T1, BSA-ALD; test: Binding yield measurements of Gd^3+ complex with BSA^Ald (ultrafiltration, ICP-MS); parameters: species or system bovine; settings: pH 7.4, PBS, 37° C., 12 h, ultrafiltration 5,000 Da cut-off
Method: FIG. 48. […] Binding concentration of the probes to BSA^Ald (pH 7.4, PBS, 37° C., 12 h) as determined by ICP-MS following an ultrafiltration (5,000 Da cut-off) to separate the protein-bound probe from the unbound probe. Slope gives the binding yield.
Alternatively, preparation of BSA^Ald and binding of Gd^3+ probe to protein was carried out according to modified procedures. To a solution of bovine serum albumin (BSA) (100 mg) dissolved in phosphate buffered saline (4 mL, pH 7.4, 0.25 mM) was added sodium ascorbate (20 mg), ferric chloride (120 μL, 10 mM) and 20 μL H2O2 (30% w). The reaction was stirred at 37° C. for 24 h, and sodium ascorbate (20 mg) was added repeatedly every 8 h. After 24 h, the protein was purified using PD-10 Sephadex G25 desalting columns (GE Healthcare), eluted with PBS. Protein concentration was assessed using the ‘Micro BCA Protein Assay Kit’ (Thermo Scientific, 23235). Protein carbonyl concentration was determined by ‘Protein Carbonyl Content Assay Kit’ (Sigma-Aldrich, MAK094-1KT). […] The protein solutions were kept at a concentration of 20 mg/mL for further use.

[5] = Affinity measurements of Gd^3+ complex with butyraldehyde (HPLC-ICP-MS); type: physicochemical
Method: FIG. 43A. […] FIG. 43B. Affinity measurements of Gd^3+ complex with butyraldehyde. Concentration-dependent binding of the probes to butyraldehyde as determined by HPLC-ICP-MS (pH 7.4 in PBS, 12 h).

[6] = Stability of compounds in human plasma; type: in vitro ADME; settings: 37° C., 2 or 3 hours
Method: Stability of Compounds in Human Plasma:
A 16 μL aliquot of the Gd or Mn complex (1.0 mM) was added to 500 μL of human plasma (Lampire Biological laboratories). The solution was then incubated for 2 or 3 hours at 37° C. Aliquots (50 μL) were removed at 1, 2 or 3 hours. Proteins were precipitated by the addition of 150 μL of acetonitrile and removed following centrifugation. The supernatant was then analyzed using HPLC-ICP-MS. No unchelated gadolinium was observed nor the appearance of any new Gd/Mn-containing species.

SMILES | relaxivity in ECM [1] [mM⁻¹ s⁻¹] | relaxivity in ECM with 100-fold excess of hydrazine [1] [mM⁻¹ s⁻¹] | fold higher initial on rate / reactivity with BSA-Ald compared to Gd-CHyd (BSA-ALD [2]) [fold] | route of elimination (dynamic whole-body MRI) [3] | Gadolinium content, Sum, % ID per Organ [3] [% ID per Organ] | Gadolinium content, Bone, % ID per Gram [3] [% ID per Gram] | Gadolinium content, Bone, % ID per Organ [3] [% ID per Organ] | Gadolinium content, Brain, % ID per Gram [3] [% ID per Gram] | Gadolinium content, Brain, % ID per Organ [3] [% ID per Organ] | Gadolinium content, Heart, % ID per Gram [3] [% ID per Gram] | Gadolinium content, Heart, % ID per Organ [3] [% ID per Organ] | Gadolinium content, Kidneys, % ID per Gram [3] [% ID per Gram] | Gadolinium content, Kidneys, % ID per Organ [3] [% ID per Organ] | Gadolinium content, Liver, % ID per Gram [3] [% ID per Gram] | Gadolinium content, Liver, % ID per Organ [3] [% ID per Organ] | Gadolinium content, Lung, % ID per Gram [3] [% ID per Gram] | Gadolinium content, Lung, % ID per Organ [3] [% ID per Organ] | Gadolinium content, Muscle, % ID per Gram [3] [% ID per Gram] | Gadolinium content, Muscle, % ID per Organ [3] [% ID per Organ] | Gadolinium content, Serum, % ID per Gram [3] [% ID per Gram] | further results
NN1CCN(C(=O)CCC(C(=O)[O-])N2CCN(CC(=O)[O-])CCN(CC(=O)[O-])CCN(C(CCC(=O)N3CCN(N)CC3)C(=O)[O-])CC2)CC1.[Gd+3] (stereo not drawn) [Gd-9, cis-1,4-Gd-(CHyd)2] | 7.8 | 6.6 | 6 | eliminated exclusively via the kidneys into the bladder | 0.625 | 0.0144 ± 0.0125 | 0.0455 ± 0.0174 | 0.00336 ± 0.00277 | 0.0013 ± 0.00125 | 0.0788 ± 0.0151 | 0.00708 ± 0.000802 | 1.33 ± 0.152 | 0.377 ± 0.0103 | 0.0686 ± 0.0102 | 0.0341 ± 0.0250 | 0.166 ± 0.100 | 0.0289 ± 0.00394 | 0.0132 ± 0.00294 | 0.105 ± 0.0225 | 0.00138 ± 0.000861 | faster on-rate than monobinder Gd-CHyd (BSA-ALD [2]): 600%; fold slower off-rate than Gd-CHyd (BSA-ALD [2]): 1.5 fold; slower off-rate than monobinder Gd-CHyd (BSA-ALD [2]): 50%; Gadolinium content, Serum, % ID per Organ [3]: 0.00376 ± 0.00113 % ID per Organ; Gadolinium content, Spleen, % ID per Gram [3]: 0.140 ± 0.0558 % ID per Gram; Gadolinium content, Spleen, % ID per Organ [3]: 0.00618 ± 0.000767 % ID per Organ; Gadolinium content, Stomach, % ID per Gram [3]: 0.114 ± 0.0288 % ID per Gram; Gadolinium content, Stomach, % ID per Organ [3]: 0.0157 ± 0.00274 % ID per Organ; equilibrium binding to BSA^Ald (binding yield) (BSA-ALD [4]): 39.2%; fold improved affinity over Gd-11 and Gd-CHyd [5]: 2 fold; stability in human plasma (HPLC-ICP-MS) [6]: lack of de-chelation or formation of Gd-containing metabolites
NN1CCN(C(=O)CCC(C(=O)[O-])N2CCN(CC(=O)[O-])CCN(C(CCC(=O)N3CCN(N)CC3)C(=O)[O-])CCN(CC(=O)[O-])CC2)CC1.[Gd+3] (stereo not drawn) [Gd-10, trans-1,7-Gd-(CHyd)2] | 7.2 | 6.7 | 3 | eliminated exclusively via the kidneys into the bladder | 0.584 | 0.0180 ± 0.00486 | 0.0469 ± 0.0126 | 0.00206 ± 0.000288 | 0.000776 ± 0.000169 | 0.0219 ± 0.00212 | 0.00203 ± 0.000132 | 1.45 ± 0.262 | 0.365 ± 0.0315 | 0.105 ± 0.00715 | 0.0572 ± 0.0426 | 0.157 ± 0.00422 | 0.0197 ± 0.00107 | 0.00886 ± 0.000914 | 0.0709 ± 0.0073 | 0.00169 ± 0.000259 | Gadolinium content, Serum, % ID per Organ [3]: 0.00398 ± 0.000175 % ID per Organ; Gadolinium content, Spleen, % ID per Gram [3]: 0.165 ± 0.0817 % ID per Gram; Gadolinium content, Spleen, % ID per Organ [3]: 0.0086 ± 0.00085 % ID per Organ; Gadolinium content, Stomach, % ID per Gram [3]: 0.0414 ± 0.02775 % ID per Gram; Gadolinium content, Stomach, % ID per Organ [3]: 0.00869 ± 0.00207 % ID per Organ; equilibrium binding to BSA^Ald (binding yield) (BSA-ALD [4]): 28.1%; fold improved affinity over Gd-11 and Gd-CHyd [5]: 2 fold; stability in human plasma (HPLC-ICP-MS) [6]: lack of de-chelation or formation of Gd-containing metabolites
